Reference: EP1964555A1, “PHARMACEUTICAL CO[…] INHIBIT THE REUPTAKE OF NORADRENALINE, DOPAMINE AND SEROTONIN, WHICH ARE COMBINED WITH AN AMINO ACID FOR THE TREATMENT OF OBESITY AND OVERWEIGHT” (Espinosa Abdala, Leopoldo de Jesús, priority 2005, dated 2007)

How the values were obtained:
[1] = Example 2: randomized, double-blind, crossover study in patients with severe obesity and dyslipidemia; assay type: in vivo; details: 4 weeks per treatment
Method: A randomized, double-blind and crossover study was made in order to assess the reliability and effectiveness of the combination Sibutramine-Carnitine in patients with obesity and/or overweight suffering from dyslipidemia. 80 individuals were included in the study with a BMI higher than 35 kg/m^2 diagnosed with severe obesity, with alteration in the profile of lipids which total cholesterol figures was higher than 200 mg/dl.
Combined Sibutramine-carnitine was administered for 4 weeks and subsequently sibutramine alone and carnitine alone for another 4 weeks.

[2] = cited from earlier work; for plasma rates: after administration of indicated Sibutramine therapeutic doses; for time for plasma concentrations to reach the stable state: during treatment; for detection in urine: in vivo; for maximum plasma concentration [Tmax]: time after administration; for effect of food on Tmax / effect of food on maximum concentrations: with food
human plasmatic proteins = details: plasma; cited from earlier work
[3] = single dose, within a 15-day period

| SMILES | reduction of BMI ([1]; BMI higher than 35 kg/m^2, total cholesterol higher than 200 mg/dl, combination compared to sibutramine alone) | plasma rates [2] | time for plasma concentrations to reach the stable state [2] | detection in urine [2] | maximum plasma concentration [Tmax] [2] | effect of food on Tmax [2] | effect of food on maximum concentrations [2] | attachment to human plasmatic proteins (human plasmatic proteins) | share expelled through urine [2, 3] | share of dose expelled through urine and feces [2, 3] | cholesterol and triglycerides levels ([1]; compared to the admission visit) |
| --- | --- | --- | --- | --- | --- | --- | --- | --- | --- | --- | --- |
| C[N+](C)(C)CC(O)CC(=O)[O-] (stereo not shown) [carnitine, Carnitine] | no significant differences | – | – | – | – | – | – | – | – | – | – |
| CNC(CC(C)C)C1(c2ccc(Cl)cc2)CCC1 (stereo not shown) [M1, mono-desmetilsibutramina] | – | 6% | four | not detected | ~3 h | delay | decreases | 94% | – | – | – |
| CC(C)CC(N(C)C)C1(c2ccc(Cl)cc2)CCC1 (stereo not shown) [Sibutramine] | – | 3% | – | not detected | 1.2 h | – | – | 97% | 77% | About 85% | frank progressive reduction |
| CC(C)CC(N)C1(c2ccc(Cl)cc2)CCC1 (stereo not shown) [M2, di-desmetil-sibutramina] | – | 12% | four | not detected | ~4 h | delay | decreases | 94% | – | – | – |
